Source: patent US20230390384A1 (priority 2020, published 2023)

Legend:
Mouse splenocytes = assay: IFN-γ ELISPOT on splenocytes of immunized mice (cellular immune response); assay type: in vivo, Balb/c mice; settings: Example 3, FIG. 11; test vaccine using only poly(I:C) as adjuvant, among all test vaccines
COVID-19 RBD antigen = assay type: in vivo, SARS-CoV-2; settings: Example 2, FIG. 6b; 5 μg each S1 and RBD; L-pampo 75 μg Pam3CSK4 + 60 μg poly(I:C) vs Alum, Addavax, AddaS03; Balb/c mice i.m. twice at 3-week intervals, serum 2 weeks after second immunization
COVID-19 S1 antigen = assay type: in vivo, SARS-CoV-2; settings: Example 2, FIG. 6a; 5 μg each S1 and RBD; L-pampo 75 μg Pam3CSK4 + 60 μg poly(I:C) vs Alum, Addavax, AddaS03; Balb/c mice i.m. twice at 3-week intervals, serum 2 weeks after second immunization

| Substance | IFN-γ spot formation (ELISPOT) (Mouse splenocytes) | RBD antigen-specific antibody titer (COVID-19 RBD antigen) | S1 antigen-specific antibody titer (COVID-19 S1 antigen) |
| --- | --- | --- | --- |
| poly(I:C) | most IFN-γ spot formation |  |  |
| N-palmitoyl-S-[2,3-bis(palmitoyloxy)-(2RS)-propyl]-[R]-cystein-SKKKK [Pam3CSK4] |  | relatively superior | relatively superior |
